Laboratory results from US20160289186A1, “FLUOROMETHYL-SUBSTITUTED PYRROLE CA[…]” (Grunenthal GmbH, priority 2013, published 2016).

Target: T1, Human CaV2.2 channels (Homo sapiens, UniProt Q00975)
T1 construct: expressed in transfected cells; host or cells: HEK293
Test: Fluorescent (FLIPR) assay for CaV2.2 channels using potassium depolarization to induce channel opening
Assay type: cell-based
Conditions: 3 μM compound; 30 mM KCl assay buffer (inactivated channel state); HEK293 cells stably expressing human CaV2.2; read-out: Activity Category: %-Inhib (CaV2.2) @3 μM @30 mM KCl
Source text: In the process, the Ca^2+ influx is quantified in the FLIPR assay with the aid of a Ca^2+-sensitive dye (type Fluo-4, Molecular Probes Europe BV, Leiden, the Netherlands) in a fluorescent imaging plate reader (FLIPR 3, Molecular Devices, Sunnyvale, USA), as described hereinafter.
Human CaV2.2 channels were stably expressed in HEK293 cells together with alpha2-delta and beta subunits of voltage gated calcium channels. In addition, an inwardly rectifying potassium channel (Kir2.3) was stably expressed in these cells to augment control of the cell membrane potential by the concentration of extracellular potassium ions. Raise of the extracellular potassium concentration leads to depolarization of the membrane potential and thus regulates the voltage dependent state of CaV2.2 channels. For preparation, cells were seeded in black poly-D-lysine coated 96-well plates (Becton Dickinson, Biocoat 4640) in 100 μL medium [500 mL DMEM/F-12 plus Glutamax (Invitrogen 31331-093) plus 5.5 mL MEM NEAA 100× (Invitrogen 11140-035) plus 50 mL FBS decomplemented (Invitrogen 10270-106) plus 200 μg/mL Geneticin (Invitrogen 10131-027) plus 50 μg/mL Hygromycin B (Invitrogen 10687-010) plus 2 μg/mL Blasticidin (anti-bl5b Invivo-Gen) plus 0.2 μg/mL Puromycin (A 11138-03)] at a cell density of 30.000 cells per well. Plates were incubated at 37° C. (5% CO2) for 20 to 23 h. On the day of experiment medium was discarded and cells were loaded with Fluo 4 by addition of 100 μL of basic assay buffer (10 mM HEPES, 1 mM KCl, 149 mM NaCl, 0.8 mM CaCl2, 1.7 mM MgCl2, 10 mM Glucose, 0.1% BSA. pH 7.4) containing 2 μM Fluo 4 (Molecular Probes; F-14201), 0.01% pluronic acid (Molecular Probes; P-6866) and 2.5 mM probenecid (Molecular Probes; P36400). Cells were incubated in the dark at 25° C. for 60 min. Then dye containing buffer was discarded and 100 μL basic (1 mM KCl) or alternative (30 mM KCl) assay buffer was added. The alternative assay buffer contained altered concentrations of KCl (30 mM) and NaCl (120 mM) and was used in order to promote the inactivated channel state. After that 25 μL of basic or alternative assay buffer with or without test compound were added and cells were incubated again in the dark at 25° C. for 15 min. Fluorescence intensity was measured on a FLIPR 3 instrument (Molecular Devices Corp., Sunnyvale, Calif.) with excitation at 480 nm and emission at 535 nm. After continuously reading fluorescence for 30 sec, 50 μL of basic assay buffer containing 210 mM KCl (NaCl omitted) were added for depolarization. Peak fluorescent signal intensity was determined and the amplitude of the peak signal, normalized to base line, was used to measure channel inhibition by test compounds.

T1 sequence (Q00975 whole entry): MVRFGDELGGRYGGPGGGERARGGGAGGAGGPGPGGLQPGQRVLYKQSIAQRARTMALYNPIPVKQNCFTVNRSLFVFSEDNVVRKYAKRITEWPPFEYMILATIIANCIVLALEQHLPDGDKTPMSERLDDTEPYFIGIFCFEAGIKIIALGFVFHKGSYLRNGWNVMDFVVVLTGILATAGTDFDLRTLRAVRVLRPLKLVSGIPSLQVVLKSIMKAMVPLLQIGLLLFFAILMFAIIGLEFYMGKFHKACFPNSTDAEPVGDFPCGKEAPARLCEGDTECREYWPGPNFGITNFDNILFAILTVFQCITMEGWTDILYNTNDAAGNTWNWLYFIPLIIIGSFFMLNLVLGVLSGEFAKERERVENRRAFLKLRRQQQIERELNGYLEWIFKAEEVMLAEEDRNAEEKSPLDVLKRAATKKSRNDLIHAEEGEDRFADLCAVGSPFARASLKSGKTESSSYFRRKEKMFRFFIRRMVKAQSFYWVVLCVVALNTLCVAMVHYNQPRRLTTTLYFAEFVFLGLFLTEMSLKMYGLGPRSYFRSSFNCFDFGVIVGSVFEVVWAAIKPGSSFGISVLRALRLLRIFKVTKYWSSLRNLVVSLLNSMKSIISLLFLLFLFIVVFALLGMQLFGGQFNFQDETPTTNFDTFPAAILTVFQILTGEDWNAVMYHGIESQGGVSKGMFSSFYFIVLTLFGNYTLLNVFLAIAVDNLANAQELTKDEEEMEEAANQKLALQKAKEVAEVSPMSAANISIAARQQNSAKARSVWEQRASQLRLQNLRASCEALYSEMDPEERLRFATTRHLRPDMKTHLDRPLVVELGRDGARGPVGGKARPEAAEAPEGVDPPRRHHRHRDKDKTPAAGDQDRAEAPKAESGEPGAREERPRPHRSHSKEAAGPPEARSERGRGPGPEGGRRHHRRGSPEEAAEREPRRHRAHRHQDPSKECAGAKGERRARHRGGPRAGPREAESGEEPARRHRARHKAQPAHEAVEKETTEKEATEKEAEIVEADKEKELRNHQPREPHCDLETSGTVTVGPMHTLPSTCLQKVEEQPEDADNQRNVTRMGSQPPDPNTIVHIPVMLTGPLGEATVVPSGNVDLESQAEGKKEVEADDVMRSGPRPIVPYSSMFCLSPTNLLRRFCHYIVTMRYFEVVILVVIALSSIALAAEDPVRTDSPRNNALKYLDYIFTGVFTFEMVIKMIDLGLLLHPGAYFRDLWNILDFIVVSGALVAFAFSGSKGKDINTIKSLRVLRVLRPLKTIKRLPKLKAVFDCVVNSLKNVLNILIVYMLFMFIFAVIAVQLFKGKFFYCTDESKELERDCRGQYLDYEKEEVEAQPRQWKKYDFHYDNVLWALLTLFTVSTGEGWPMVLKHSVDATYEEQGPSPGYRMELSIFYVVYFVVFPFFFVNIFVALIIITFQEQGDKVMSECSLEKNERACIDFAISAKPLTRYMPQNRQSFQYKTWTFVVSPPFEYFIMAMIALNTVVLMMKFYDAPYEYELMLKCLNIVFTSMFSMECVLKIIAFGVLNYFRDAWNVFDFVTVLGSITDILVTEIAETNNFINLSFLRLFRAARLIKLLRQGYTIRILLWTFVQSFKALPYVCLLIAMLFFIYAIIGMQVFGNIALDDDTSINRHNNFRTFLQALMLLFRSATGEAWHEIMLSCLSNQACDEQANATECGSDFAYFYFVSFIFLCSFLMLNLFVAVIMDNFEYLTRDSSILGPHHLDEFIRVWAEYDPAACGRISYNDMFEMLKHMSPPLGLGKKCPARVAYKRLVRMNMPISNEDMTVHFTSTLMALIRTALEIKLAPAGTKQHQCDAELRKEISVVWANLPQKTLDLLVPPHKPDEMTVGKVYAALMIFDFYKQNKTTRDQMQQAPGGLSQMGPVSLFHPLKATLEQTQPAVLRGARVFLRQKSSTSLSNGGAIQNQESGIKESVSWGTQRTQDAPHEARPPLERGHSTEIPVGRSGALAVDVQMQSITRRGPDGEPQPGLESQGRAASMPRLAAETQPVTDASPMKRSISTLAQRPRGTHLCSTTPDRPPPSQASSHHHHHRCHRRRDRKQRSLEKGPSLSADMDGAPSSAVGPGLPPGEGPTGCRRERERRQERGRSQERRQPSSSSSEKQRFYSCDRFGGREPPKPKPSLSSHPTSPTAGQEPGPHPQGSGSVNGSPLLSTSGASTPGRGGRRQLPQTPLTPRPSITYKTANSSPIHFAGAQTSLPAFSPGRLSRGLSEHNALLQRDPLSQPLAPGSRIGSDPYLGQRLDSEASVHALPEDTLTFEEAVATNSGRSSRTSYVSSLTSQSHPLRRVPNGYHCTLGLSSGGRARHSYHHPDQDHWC
T1 sequence (P54284 whole entry, further chain): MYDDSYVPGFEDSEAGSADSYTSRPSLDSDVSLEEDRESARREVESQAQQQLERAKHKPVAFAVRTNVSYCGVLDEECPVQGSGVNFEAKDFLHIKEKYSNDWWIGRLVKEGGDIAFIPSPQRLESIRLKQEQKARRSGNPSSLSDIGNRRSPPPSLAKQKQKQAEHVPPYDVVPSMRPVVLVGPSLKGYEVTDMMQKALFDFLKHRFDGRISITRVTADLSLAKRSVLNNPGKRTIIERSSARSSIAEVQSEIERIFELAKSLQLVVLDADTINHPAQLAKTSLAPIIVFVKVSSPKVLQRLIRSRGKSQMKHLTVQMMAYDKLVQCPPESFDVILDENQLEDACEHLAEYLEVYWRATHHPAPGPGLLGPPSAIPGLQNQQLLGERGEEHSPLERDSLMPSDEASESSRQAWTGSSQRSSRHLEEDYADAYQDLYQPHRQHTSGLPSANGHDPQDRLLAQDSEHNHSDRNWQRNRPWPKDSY
T1 sequence (P54289 25-1103, further chain): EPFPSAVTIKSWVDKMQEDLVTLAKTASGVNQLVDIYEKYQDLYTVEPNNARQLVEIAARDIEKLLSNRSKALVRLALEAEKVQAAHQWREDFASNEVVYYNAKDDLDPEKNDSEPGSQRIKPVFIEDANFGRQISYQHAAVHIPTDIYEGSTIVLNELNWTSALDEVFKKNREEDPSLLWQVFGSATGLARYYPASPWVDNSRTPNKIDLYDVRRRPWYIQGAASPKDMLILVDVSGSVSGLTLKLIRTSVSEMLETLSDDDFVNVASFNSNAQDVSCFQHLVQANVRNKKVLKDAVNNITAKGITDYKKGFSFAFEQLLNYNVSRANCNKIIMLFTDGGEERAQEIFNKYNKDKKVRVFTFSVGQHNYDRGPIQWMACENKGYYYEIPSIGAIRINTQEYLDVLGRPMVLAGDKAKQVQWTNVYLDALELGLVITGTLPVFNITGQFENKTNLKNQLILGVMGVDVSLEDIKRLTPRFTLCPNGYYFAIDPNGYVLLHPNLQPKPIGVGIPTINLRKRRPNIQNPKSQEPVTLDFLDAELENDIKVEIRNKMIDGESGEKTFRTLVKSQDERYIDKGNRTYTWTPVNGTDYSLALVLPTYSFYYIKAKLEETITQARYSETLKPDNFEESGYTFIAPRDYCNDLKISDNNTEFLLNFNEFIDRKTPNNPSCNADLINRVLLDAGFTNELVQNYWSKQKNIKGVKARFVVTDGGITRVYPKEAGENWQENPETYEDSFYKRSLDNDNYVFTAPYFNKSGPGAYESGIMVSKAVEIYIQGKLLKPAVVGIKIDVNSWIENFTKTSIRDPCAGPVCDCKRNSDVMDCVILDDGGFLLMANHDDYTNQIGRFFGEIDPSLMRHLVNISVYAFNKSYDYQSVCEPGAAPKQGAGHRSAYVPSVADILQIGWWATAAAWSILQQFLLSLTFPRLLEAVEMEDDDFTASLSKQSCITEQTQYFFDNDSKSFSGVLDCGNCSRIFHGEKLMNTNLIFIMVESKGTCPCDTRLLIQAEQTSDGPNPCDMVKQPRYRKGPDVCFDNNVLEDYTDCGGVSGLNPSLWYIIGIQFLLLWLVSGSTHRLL

Q: `Cc1c(-c2ccc(Cl)cc2)c(C(=O)N(Cc2ccccc2)C2CCOCC2)n(C)c1C(F)(F)F` [Example 001, N-Benzyl-3-(4-chlorophenyl)-1,4-dimethyl-N-tetrahydro-pyran-4-yl-5-(trifluoromethyl)-1H-pyrrole-2-carboxylic acid amide] was tested. Which inhibition at 3 µM did it give?
A: 75 to 95%

Q: With `Cc1c(-c2ccc(Cl)cc2)c(C(=O)N(C)CC(C)(C)C)n(C)c1C(F)(F)F` [Example 002, 3-(4-Chlorophenyl)-N-(2,2-dimethyl-propyl)-N,1,4-trimethyl-5-(trifluoromethyl)-1H-pyrrole-2-carboxylic acid amide] as the compound, how does the inhibition at 3 µM read?
A: 75 to 95%

Q: How did the inhibition at 3 µM turn out when `Cc1c(-c2ccc(Cl)cc2)c(C(=O)N(Cc2ccccc2)CC(C)(C)C)n(C)c1C(F)(F)F` [Example 003, N-Benzyl-3-(4-chlorophenyl)-N-(2,2-dimethyl-propyl)-1,4-dimethyl-5-(trifluoromethyl)-1H-pyrrole-2-carboxylic acid amide] was run?
A: 40 to 75%

Q: With `Cc1c(-c2ccc(Cl)cc2)c(C(=O)N2CCOCC2)n(C)c1C(F)(F)F` [Example 004, [3-(4-Chlorophenyl)-1,4-dimethyl-5-(trifluoromethyl)-1H-pyrrol-2-yl]-morpholin-4-yl-methanone] as the compound, how does the inhibition at 3 µM read?
A: 75 to 95%

Q: `CCn1c(C(=O)N(C)CC(C)(C)C)c(-c2ccc(Cl)cc2)c(C)c1C(F)(F)F` [Example 005, 3-(4-Chlorophenyl)-N-(2,2-dimethyl-propyl)-1-ethyl-N,4-dimethyl-5-(trifluoromethyl)-1H-pyrrole-2-carboxylic acid amide] was tested. Which inhibition at 3 µM did it give?
A: 40 to 75%

Q: Which inhibition at 3 µM does the source give for `Cc1c(-c2ccc(Cl)cc2)c(C(=O)N2CCOC(C)(C)C2)n(C(C)C)c1C(F)(F)F` [Example 006, [3-(4-Chlorophenyl)-1-isopropyl-4-methyl-5-(trifluoromethyl)-1H-pyrrol-2-yl]-(2,2-dimethyl-morpholin-4-yl)-methanone] here?
A: 75 to 95%

Q: With `Cc1c(-c2ccc(Cl)cc2)c(C(=O)N(C)C2(C(N)=O)CC2)n(C2CC2)c1C(F)(F)F` [Example 007, N-(1-Carbamoyl-cyclopropyl)-3-(4-chlorophenyl)-1-cyclopropyl-N,4-dimethyl-5-(trifluoromethyl)-1H-pyrrole-2-carboxylic acid amide] as the compound, how does the inhibition at 3 µM read?
A: 40 to 75%

Q: `Cc1c(-c2ccc(Cl)cc2)c(C(=O)N(C)C2CCS(=O)(=O)CC2)n(C2CC2)c1C(F)(F)F` [Example 008, 3-(4-Chlorophenyl)-1-cyclopropyl-N-(1,1-dioxo-thian-4-yl)-N,4-dimethyl-5-(trifluoromethyl)-1H-pyrrole-2-carboxylic acid amide] was tested. Which inhibition at 3 µM did it give?
A: 75 to 95%

Q: Which inhibition at 3 µM does the source give for `Cc1c(-c2ccc(Cl)cc2)c(C(=O)N(C)CC(C)(C)C(N)=O)n(C2CC2)c1C(F)(F)F` [Example 009, N-(2-Carbamoyl-2-methyl-propyl)-3-(4-chlorophenyl)-1-cyclopropyl-N,4-dimethyl-5-(trifluoromethyl)-1H-pyrrole-2-carboxylic acid amide] here?
A: 75 to 95%

Q: Which inhibition at 3 µM does the source give for `COc1ccc(CN(C)C(=O)c2c(-c3ccc(Cl)cc3)c(C)c(C(F)(F)F)n2C2CC2)cc1` [Example 010, 3-(4-Chlorophenyl)-1-cyclopropyl-N-[(4-methoxyphenyl)-methyl]-N,4-dimethyl-5-(trifluoromethyl)-1H-pyrrole-2-carboxylic acid amide] here?
A: 75 to 95%

Q: With `COc1ccc(CN(C)C(=O)c2c(-c3ccc(Cl)cc3)cc(C(F)(F)F)n2C2CC2)cc1` [Example 011, 3-(4-Chlorophenyl)-1-cyclopropyl-N-[(4-methoxyphenyl)-methyl]-N-methyl-5-(trifluoromethyl)-1H-pyrrole-2-carboxylic acid amide] as the compound, how does the inhibition at 3 µM read?
A: 75 to 95%

Q: Which inhibition at 3 µM does the source give for `Cc1c(-c2ccc(Cl)cc2)c(C(=O)N(C)C2CC2)n(C2CC2)c1C(F)(F)F` [Example 012, 3-(4-Chlorophenyl)-N,1-dicyclopropyl-N,4-dimethyl-5-(trifluoromethyl)-1H-pyrrole-2-carboxylic acid amide] here?
A: 75 to 95%

Q: How did the inhibition at 3 µM turn out when `CN(C(=O)c1c(-c2ccc(Cl)cc2)cc(C(F)(F)F)n1C1CC1)C1CC1` [Example 013, 3-(4-Chlorophenyl)-N,1-dicyclopropyl-N-methyl-5-(trifluoromethyl)-1H-pyrrole-2-carboxylic acid amide] was run?
A: 75 to 95%

Q: Which inhibition at 3 µM does the source give for `Cc1c(-c2ccc(Cl)cc2)c(C(=O)N(C)C2CCOCC2)n(C2CC2)c1C(F)(F)F` [Example 014, 3-(4-Chlorophenyl)-1-cyclopropyl-N,4-dimethyl-N-tetrahydro-pyran-4-yl-5-(trifluoromethyl)-1H-pyrrole-2-carboxylic acid amide] here?
A: 75 to 95%

Q: Which inhibition at 3 µM does the source give for `CN(C(=O)c1c(-c2ccc(Cl)cc2)cc(C(F)(F)F)n1C1CC1)C1CCOCC1` [Example 015, 3-(4-Chlorophenyl)-1-cyclopropyl-N-methyl-N-tetrahydro-pyran-4-yl-5-(trifluoromethyl)-1H-pyrrole-2-carboxylic acid amide] here?
A: 75 to 95%

Q: With `Cc1c(-c2ccc(Cl)cc2)c(C(=O)N(C)CC(C)(C)CN2CCOCC2)n(C2CC2)c1C(F)(F)F` [Example 016, 3-(4-Chlorophenyl)-1-cyclopropyl-N-(2,2-dimethyl-3-morpholin-4-yl-propyl)-N,4-dimethyl-5-(trifluoromethyl)-1H-pyrrole-2-carboxylic acid amide] as the compound, how does the inhibition at 3 µM read?
A: > 95%

Q: With `CN(CC(C)(C)CN1CCOCC1)C(=O)c1c(-c2ccc(Cl)cc2)cc(C(F)(F)F)n1C1CC1` [Example 017, 3-(4-Chlorophenyl)-1-cyclopropyl-N-(2,2-dimethyl-3-morpholin-4-yl-propyl)-N-methyl-5-(trifluoromethyl)-1H-pyrrole-2-carboxylic acid amide] as the compound, how does the inhibition at 3 µM read?
A: 75 to 95%

Q: How did the inhibition at 3 µM turn out when `Cc1c(-c2ccc(Cl)cc2)c(C(=O)N(C)CC(C)(C)O)n(C2CC2)c1C(F)(F)F` [Example 018, 3-(4-Chlorophenyl)-1-cyclopropyl-N-(2-hydroxy-2-methyl-propyl)-N,4-dimethyl-5-(trifluoromethyl)-1H-pyrrole-2-carboxylic acid amide] was run?
A: 75 to 95%

Q: `CN(CC(C)(C)O)C(=O)c1c(-c2ccc(Cl)cc2)cc(C(F)(F)F)n1C1CC1` [Example 019, 3-(4-Chlorophenyl)-1-cyclopropyl-N-(2-hydroxy-2-methyl-propyl)-N-methyl-5-(trifluoromethyl)-1H-pyrrole-2-carboxylic acid amide] was tested. Which inhibition at 3 µM did it give?
A: 40 to 75%

Q: For `Cc1cc(CN(C)C(=O)c2c(-c3ccc(Cl)cc3F)c(C)c(C(F)(F)F)n2C2CC2)no1` [Example 020, 3-(4-Chloro-2-fluoro-phenyl)-1-cyclopropyl-N,4-dimethyl-N-[(5-methyl-isoxazol-3-yl)-methyl]-5-(trifluoromethyl)-1H-pyrrole-2-carboxylic acid amide], which inhibition at 3 µM is on record?
A: > 95%

Q: For `Cc1c(-c2ccc(Cl)cc2F)c(C(=O)N(C)Cc2ccncn2)n(C2CC2)c1C(F)(F)F` [Example 021, 3-(4-Chloro-2-fluoro-phenyl)-1-cyclopropyl-N,4-dimethyl-N-(pyrimidin-4-yl-methyl)-5-(trifluoromethyl)-1H-pyrrole-2-carboxylic acid amide], which inhibition at 3 µM is on record?
A: > 95%

Q: Which inhibition at 3 µM does the source give for `Cc1c(-c2ccc(Cl)cc2)c(C(=O)N(C)CC2CCOC2)n(C2CC2)c1C(F)(F)F` (stereo not drawn) [Example 022, 3-(4-Chlorophenyl)-1-cyclopropyl-N,4-dimethyl-N-(tetrahydro-furan-3-yl-methyl)-5-(trifluoromethyl)-1H-pyrrole-2-carboxylic acid amide] here?
A: > 95%

Q: Which inhibition at 3 µM does the source give for `CN(CC1CCOC1)C(=O)c1c(-c2ccc(Cl)cc2)cc(C(F)(F)F)n1C1CC1` (stereo not drawn) [Example 023, 3-(4-Chlorophenyl)-1-cyclopropyl-N-methyl-N-(tetrahydro-furan-3-yl-methyl)-5-(trifluoromethyl)-1H-pyrrole-2-carboxylic acid amide] here?
A: 75 to 95%

Q: With `Cc1cnc(CN(C)C(=O)c2c(-c3ccc(Cl)cc3F)c(C)c(C(F)(F)F)n2C2CC2)cn1` [Example 024, 3-(4-Chloro-2-fluoro-phenyl)-1-cyclopropyl-N,4-dimethyl-N-[(5-methyl-pyrazin-2-yl)-methyl]-5-(trifluoromethyl)-1H-pyrrole-2-carboxylic acid amide] as the compound, how does the inhibition at 3 µM read?
A: > 95%
